In PubChem BioAssay (NCI):
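Briefly, cells in 96-well plates were exposed to five compound concentrations for 48 h, and endpoints were estimated by linear interpolation. Abbreviation: GI50, concentration required for 50% inhibition of growth. TGI is the concentration that stops growth completely.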

Key:
Assay in all cases: DTP human tumour cell line panel, 48 h
786-0 renal = tested on: 786-0 renal
A498 renal = tested on: A498 renal
A549 NSCLC = tested on: A549 NSCLC
ACHN renal = tested on: ACHN renal
BT-549 breast = tested on: BT-549 breast
CAKI-1 renal = tested on: CAKI-1 renal
COLO 205 colon = tested on: COLO 205 colon
DU-145 prostate = tested on: DU-145 prostate
EKVX NSCLC = tested on: EKVX NSCLC
HCC-2998 colon = tested on: HCC-2998 colon
HCT-116 colon = tested on: HCT-116 colon
HCT-15 colon = tested on: HCT-15 colon
HL-60(TB) leukemia = tested on: HL-60(TB) leukemia
HOP-62 NSCLC = tested on: HOP-62 NSCLC
HOP-92 NSCLC = tested on: HOP-92 NSCLC
HS 578T breast = tested on: HS 578T breast
IGROV1 ovarian = tested on: IGROV1 ovarian
K-562 leukemia = tested on: K-562 leukemia
LOX IMVI melanoma = tested on: LOX IMVI melanoma
M14 melanoma = tested on: M14 melanoma
MALME-3M melanoma = tested on: MALME-3M melanoma
MCF7 breast = tested on: MCF7 breast
MDA-MB-231 breast = tested on: MDA-MB-231 breast
MDA-MB-435 = tested on: MDA-MB-435
MDA-MB-468 breast = tested on: MDA-MB-468 breast
MOLT-4 leukemia = tested on: MOLT-4 leukemia
NCI-H226 lung = tested on: NCI-H226 lung
NCI-H23 lung = tested on: NCI-H23 lung
NCI-H460 lung = tested on: NCI-H460 lung
NCI-H522 lung = tested on: NCI-H522 lung
NCI/ADR-RES ovarian = tested on: NCI/ADR-RES ovarian
OVCAR-5 ovarian = tested on: OVCAR-5 ovarian
OVCAR-8 ovarian = tested on: OVCAR-8 ovarian
PC-3 prostate = tested on: PC-3 prostate
RPMI-8226 leukemia = tested on: RPMI-8226 leukemia
RXF 393 renal = tested on: RXF 393 renal
SF-268 CNS = tested on: SF-268 CNS
SF-295 CNS = tested on: SF-295 CNS
SF-539 CNS = tested on: SF-539 CNS
SK-MEL-2 melanoma = tested on: SK-MEL-2 melanoma
SK-MEL-28 melanoma = tested on: SK-MEL-28 melanoma
SK-MEL-5 melanoma = tested on: SK-MEL-5 melanoma
SK-OV-3 ovarian = tested on: SK-OV-3 ovarian
SN12C renal = tested on: SN12C renal
SNB-19 CNS = tested on: SNB-19 CNS
SNB-75 CNS = tested on: SNB-75 CNS
SW-620 colon = tested on: SW-620 colon
TK-10 renal = tested on: TK-10 renal
U251 CNS = tested on: U251 CNS
UACC-257 melanoma = tested on: UACC-257 melanoma
UACC-62 melanoma = tested on: UACC-62 melanoma
UO-31 renal = tested on: UO-31 renal

With `O=C(NN1C(=O)/C(=C/C=C/c2ccc([N+](=O)[O-])o2)SC1=S)c1cccc(O)c1` the GI50 (786-0 renal) was 1.62 µM, the TGI (786-0 renal) was 3.02 µM and the GI50 (A498 renal) was 19.7 µM. For the same molecule, the TGI (A498 renal) was 33.8 µM, the GI50 (A549 NSCLC) was 2.92 µM and the TGI (A549 NSCLC) was 11.6 µM. The GI50 (ACHN renal) was 1.64 µM, the TGI (ACHN renal) was 3 µM and the GI50 (BT-549 breast) was 0.492 µM. The TGI (BT-549 breast) was 1.79 µM, the GI50 (CAKI-1 renal) was 1.57 µM and the TGI (CAKI-1 renal) was 2.92 µM. It also gave a GI50 (COLO 205 colon) of 1.6 µM, a TGI (COLO 205 colon) of 3.08 µM and a GI50 (DU-145 prostate) of 2.12 µM. It also gave a TGI (DU-145 prostate) of 4.48 µM, a GI50 (EKVX NSCLC) of 1.49 µM and a TGI (EKVX NSCLC) of 2.9 µM. It also gave a GI50 (HCC-2998 colon) of 1.74 µM, a TGI (HCC-2998 colon) of 3.15 µM and a GI50 (HCT-116 colon) of 0.233 µM. The TGI (HCT-116 colon) was 0.63 µM, the GI50 (HCT-15 colon) was 0.167 µM and the TGI (HCT-15 colon) was 0.371 µM. The GI50 (HL-60(TB) leukemia) was 2.12 µM, the TGI (HL-60(TB) leukemia) was 5.49 µM and the GI50 (HOP-62 NSCLC) was 1.73 µM. The TGI (HOP-62 NSCLC) was 3.19 µM, the GI50 (HOP-92 NSCLC) was 1.23 µM and the TGI (HOP-92 NSCLC) was 2.82 µM. It also gave a GI50 (HS 578T breast) of 2.13 µM, a TGI (HS 578T breast) of 7.7 µM and a GI50 (IGROV1 ovarian) of 1.39 µM. For the same molecule, the TGI (IGROV1 ovarian) was 2.69 µM, the GI50 (K-562 leukemia) was 0.222 µM and the TGI (K-562 leukemia) was 1.1 µM. It also gave a GI50 (LOX IMVI melanoma) of 0.167 µM, a TGI (LOX IMVI melanoma) of 0.323 µM and a GI50 (M14 melanoma) of 0.282 µM. The TGI (M14 melanoma) was 0.921 µM, the GI50 (MALME-3M melanoma) was 0.205 µM and the TGI (MALME-3M melanoma) was 0.447 µM. The GI50 (MCF7 breast) was 1.24 µM, the TGI (MCF7 breast) was 2.96 µM and the GI50 (MDA-MB-231 breast) was 0.253 µM. It also gave a TGI (MDA-MB-231 breast) of 0.737 µM, a GI50 (MDA-MB-435) of 0.675 µM and a TGI (MDA-MB-435) of 2.11 µM. For the same molecule, the GI50 (MDA-MB-468 breast) was 1.71 µM, the TGI (MDA-MB-468 breast) was 3.4 µM and the GI50 (MOLT-4 leukemia) was 0.295 µM. It also gave a TGI (MOLT-4 leukemia) of 1.28 µM, a GI50 (NCI-H226 lung) of 0.393 µM and a TGI (NCI-H226 lung) of 1.58 µM. The GI50 (NCI-H23 lung) was 1.01 µM, the TGI (NCI-H23 lung) was 2.26 µM and the GI50 (NCI-H460 lung) was 1.63 µM. It also gave a TGI (NCI-H460 lung) of 3.71 µM, a GI50 (NCI-H522 lung) of 0.185 µM and a TGI (NCI-H522 lung) of 0.367 µM. The GI50 (NCI/ADR-RES ovarian) was 1.96 µM, the TGI (NCI/ADR-RES ovarian) was 4.63 µM and the GI50 (OVCAR-5 ovarian) was 1.85 µM. It also gave a TGI (OVCAR-5 ovarian) of 3.38 µM, a GI50 (OVCAR-8 ovarian) of 0.571 µM and a TGI (OVCAR-8 ovarian) of 2.54 µM. It also gave a GI50 (PC-3 prostate) of 1.88 µM, a TGI (PC-3 prostate) of 4.18 µM and a GI50 (RPMI-8226 leukemia) of 0.387 µM. For the same molecule, the TGI (RPMI-8226 leukemia) was 2.19 µM, the GI50 (RXF 393 renal) was 1.25 µM and the TGI (RXF 393 renal) was 2.52 µM. For the same molecule, the GI50 (SF-268 CNS) was 1.95 µM, the TGI (SF-268 CNS) was 4.81 µM and the GI50 (SF-295 CNS) was 2.12 µM. It also gave a TGI (SF-295 CNS) of 5.01 µM, a GI50 (SF-539 CNS) of 1.58 µM and a TGI (SF-539 CNS) of 2.95 µM. It also gave a GI50 (SK-MEL-2 melanoma) of 1.07 µM, a TGI (SK-MEL-2 melanoma) of 2.44 µM and a GI50 (SK-MEL-28 melanoma) of 1.66 µM. The TGI (SK-MEL-28 melanoma) was 3.03 µM, the GI50 (SK-MEL-5 melanoma) was 0.662 µM and the TGI (SK-MEL-5 melanoma) was 1.95 µM. For the same molecule, the GI50 (SK-OV-3 ovarian) was 1.91 µM, the TGI (SK-OV-3 ovarian) was 4.31 µM and the GI50 (SN12C renal) was 0.256 µM. For the same molecule, the TGI (SN12C renal) was 1.15 µM, the GI50 (SNB-19 CNS) was 1.81 µM and the TGI (SNB-19 CNS) was 3.56 µM. It also gave a GI50 (SNB-75 CNS) of 1.28 µM, a TGI (SNB-75 CNS) of 5.87 µM and a GI50 (SW-620 colon) of 0.209 µM. For the same molecule, the TGI (SW-620 colon) was 0.485 µM, the GI50 (TK-10 renal) was 1.78 µM and the TGI (TK-10 renal) was 3.49 µM. The GI50 (U251 CNS) was 1.39 µM, the TGI (U251 CNS) was 2.89 µM and the GI50 (UACC-257 melanoma) was 1.74 µM. It also gave a TGI (UACC-257 melanoma) of 3.54 µM, a GI50 (UACC-62 melanoma) of 0.587 µM and a TGI (UACC-62 melanoma) of 1.93 µM. It also gave a GI50 (UO-31 renal) of 1.41 µM and a TGI (UO-31 renal) of 2.72 µM.
